The target of this assay is T1, human B1R (Homo sapiens, UniProt P46663).
T1 construct: expressed in transfected cells; host or cells: CHO K1 cells (Chinese Hamster Ovary), stably transfected
T1 sequence (P46663 1-353): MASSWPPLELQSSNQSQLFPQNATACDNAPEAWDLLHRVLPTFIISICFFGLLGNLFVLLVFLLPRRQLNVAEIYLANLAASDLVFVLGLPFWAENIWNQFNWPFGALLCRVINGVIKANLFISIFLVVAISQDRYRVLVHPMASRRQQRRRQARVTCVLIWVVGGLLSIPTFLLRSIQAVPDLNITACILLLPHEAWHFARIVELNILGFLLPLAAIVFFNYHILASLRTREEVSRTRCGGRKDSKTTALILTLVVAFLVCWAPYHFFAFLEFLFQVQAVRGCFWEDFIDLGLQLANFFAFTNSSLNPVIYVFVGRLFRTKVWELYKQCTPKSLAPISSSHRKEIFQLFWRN
Nature of the assay: Functional assay at bradykinin receptor 1 (B1R): Ca2+ fluorescence (Fluo-4) in FLIPR/Novostar, antagonist mode. The assay is classed as cell-based. As to conditions: test substance 10 µM; CHO K1 cells stably transfected with human B1R gene (hB1R-Zellen); agonist Lys-Des-Arg9-Bradykinin at EC80; % inhibition relative to maximal achievable inhibition; read-out: % Inhibierung (human B1R) bei 10 µM. In outline: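 Antagonism read as suppression of the Ca2+ rise in Fluo-4-loaded, hB1R-transfected CHO K1 cells when Lys-Des-Arg9-bradykinin (EC80) follows a 6–20 min compound preincubation. Maximal fluorescence counts, measured on FLIPR or Novostar, yield % inhibition relative to maximum; IC50 values come from concentration series run in duplicate or triplicate.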

For the molecule `COCCN1CCC(NC(=O)Cn2nc(CS(=O)(=O)c3c(C)cc(OC)cc3C)cc2C)C(C)(C)C1` (centres unmarked) [CC-157, 2-[3-[[(4-Methoxy-2,6-dimethyl-phenyl)sulfonyl]-methyl]-5-methyl-1H-pyrazol-1-yl]-N-[1-(2-methoxy-ethyl)-3,3-dimethyl-piperidin-4-yl]-acetamid], the inhibition at 10 µM amounted to 61%.

For the molecule `COc1cc(C)c(S(=O)(=O)Cc2cn(CC(=O)NC3CCC(N4CCCC4)CC3(C)C)nn2)c(C)c1` (centres unmarked) [CC-158, N-(2,2-Dimethyl-4-pyrrolidin-1-yl-cyclohexyl)-2-[4-[[(4-methoxy-2,6-dimethyl-phenyl)sulfonyl]-methyl]-1H-[1,2,3]triazol-1-yl]-acetamid], the inhibition at 10 µM was found to be 100%.

Regarding `COc1cc(C)c(S(=O)(=O)Cc2cc(C)n(CC(=O)NC3CCN(C(C)=O)CC3(C)C)n2)c(C)c1` (centres unmarked) [CC-159, N-(1-Acetyl-3,3-dimethyl-piperidin-4-yl)-2-[3-[[(4-methoxy-2,6-dimethyl-phenyl)sulfonyl]-methyl]-5-methyl-1 H-pyrazol-1-yl]-acetamid], the inhibition at 10 µM amounted to 50%.

For `COCCN1CCC(NC(=O)Cn2cc(CS(=O)(=O)c3c(C)cc(OC)cc3C)nn2)C(C)(C)C1` (centres unmarked) [CC-160, 2-[4-[[(4-Methoxy-2,6-dimethyl-phenyl)sulfonyl]-methyl]-1H-[1,2,3]triazol-1-yl]-N-[1-(2-methoxy-ethyl)-3,3-dimethyl-piperidin-4-yl]-acetamid], the inhibition at 10 µM was 100%.

On to `COc1cc(C)c(S(=O)(=O)Cc2cn(CC(=O)NC3CCN(C(C)=O)CC3(C)C)nn2)c(C)c1` (centres unmarked) [CC-161, N-(1-Acetyl-3,3-dimethyl-piperidin-4-yl)-2-[4-[[(4-methoxy-2,6-dimethyl-phenyl)sulfonyl]-methyl]-1H-[1,2,3]triazol-1-yl]-acetamid], for which the inhibition at 10 µM came out at 92%.

Consider `COc1cc(C)c(S(=O)(=O)Cc2cn(CC(=O)NC3CCC(N4CCN(C)CC4)CC3(C)C)nn2)c(C)c1` (centres unmarked) [CC-162, N-[2,2-Dimethyl-4-(4-methyl-piperazin-1-yl)-cyclohexyl]-2-[4-[[(4-methoxy-2,6-dimethylphenyl)sulfonyl]-methyl]-1H-[1,2,3]triazol-1-yl]-acetamid], for which the inhibition at 10 µM is 100%.

On to `COc1cc(C)c(S(=O)(=O)Cc2cc(C)n(CC(=O)NC3CCC(N4CCN(C)CC4)CC3(C)C)n2)c(C)c1` (centres unmarked) [CC-163, N-[2,2-Dimethyl-4-(4-methyl-piperazin-1-yl)-cyclohexyl]-2-[3-[[(4-methoxy-2,6-dimethyl-phenyl)sulfonyl]-methyl]-5-methyl-1H-pyrazol-1-yl]-acetamid], for which the inhibition at 10 µM turned out to be 99%.

In the case of `COc1cc(C)c(S(=O)(=O)Cc2c(C)nn(CC(=O)NC3CCC(N4CCCC4)CC3)c2C)c(C)c1` (centres unmarked) [CC-164, 2-[4-[[(4-Methoxy-2,6-dimethyl-phenyl)sulfonyl]-methyl]-3,5-dimethyl-1H-pyrazol-1-yl]-N-(4-pyrrolidin-1-yl-cyclohexyl)-acetamid], the inhibition at 10 µM came to 100%.

As to `COCCN1CCC(NC(=O)Cn2nc(C)c(CS(=O)(=O)c3c(C)cc(OC)cc3C)c2C)C(C)(C)C1` (centres unmarked) [CC-165, 2-[4-[[(4-Methoxy-2,6-dimethyl-phenyl)sulfonyl]-methyl]-3,5-dimethyl-1H-pyrazol-1-yl]-N-[1-(2-methoxy-ethyl)-3,3-dimethyl-piperidin-4-yl]-acetamid], the inhibition at 10 µM came out at 100%.

On to `COc1cc(C)c(S(=O)(=O)Cc2c(C)nn(CC(=O)NC3CCC(N4CCN(C)CC4)CC3(C)C)c2C)c(C)c1` (centres unmarked) [CC-166, N-[2,2-D imethyl-4-(4-methyl-piperazin-1-yl)-cyclohexyl]-2-[4-[[(4-methoxy-2,6-dimethyl-phenyl)sulfonyl]-methyl]-3,5-dimethyl-1 H-pyrazol-1-yl]-acetamid], for which the inhibition at 10 µM stood at 100%.

In the case of `COc1cc(C)c(S(=O)(=O)Cc2cn(CC(=O)NC3CCC(N4CCCC4)CC3)nn2)c(C)c1` (centres unmarked) [CC-167, 2-[4-[[(4-Methoxy-2,6-dimethyl-phenyl)sulfonyl]-methyl]-1H-[1,2,3]triazol-1-yl]-N-(4-pyrrolidin-1-yl-cyclohexyl)-acetamid], the inhibition at 10 µM worked out at 100%.

As for `COc1cc(C)c(S(=O)(=O)Cc2c(C)nn(CC(=O)NC3CCC(N(C)C)CC3)c2C)c(C)c1` (centres unmarked) [CC-168, N-(4-Dimethylamino-cyclohexyl)-2-[4-[[(4-methoxy-2,6-dimethyl-phenyl)sulfonyl]-methyl]-3,5-dimethyl-1 H-pyrazol-1-yl]-acetamid], the inhibition at 10 µM turned out to be 100%.

Consider `COc1cc(C)c(S(=O)(=O)Cc2cn(CC(=O)NC3CCC(N(C)C)CC3)nn2)c(C)c1` (centres unmarked) [CC-169, N-(4-Dimethylamino-cyclohexyl)-2-[4-[[(4-methoxy-2,6-dimethyl-phenyl)sulfonyl]-methyl]-1H-[1,2,3]triazol-1-yl]-acetamid], for which the inhibition at 10 µM turned out to be 100%.

For the molecule `COc1cc(C)c(S(=O)(=O)Cc2c(C)nn(CC(=O)NC3CCC(N4CCCC4)CC3(C)C)c2C)c(C)c1` (centres unmarked) [CC-170, N-(2,2-Dimethyl-4-pyrrolidin-1-yl-cyclohexyl)-2-[4-[[(4-methoxy-2,6-dimethyl-phenyl)sulfonyl]-methyl]-3,5-dimethyl-1H-pyrazol-1-yl]-acetamid], the inhibition at 10 µM worked out at 99%.

For `COc1cc(C)c(S(=O)(=O)Cc2cc(C)n(CC(=O)NC3CCNCC3(C)C)n2)c(C)c1` (centres unmarked) [CC-171, N-(3,3-Dimethyl-piperidin-4-yl)-2-[3-[[(4-methoxy-2,6-dimethyl-phenyl)sulfonyl]-methyl]-5-methyl-1 H-pyrazol-1-yl]-acetamid], the inhibition at 10 µM was found to be 71%.

Turning to `COc1cc(C)c(S(=O)(=O)Cc2c(C)nn(CC(=O)NC3CCC(c4ccncc4)CC3(C)C)c2C)c(C)c1` (centres unmarked) [CC-172, N-(2,2-Dimethyl-4-pyridin-4-yl-cyclohexyl)-2-[4-[[(4-methoxy-2,6-dimethyl-phenyl)sulfonyl]-methyl]-3,5-dimethyl-1 H-pyrazol-1-yl]-acetamid], the inhibition at 10 µM stood at 100%.

On to `COc1cc(C)c(S(=O)(=O)Cc2c(C)nn(CC(=O)NC3CCNCC3)c2C)c(C)c1` [CC-173, 2-[4-[[(4-Methoxy-2,6-dimethyl-phenyl)sulfonyl]-methyl]-3,5-dimethyl-1H-pyrazol-1-yl]-N-piperidin-4-yl-acetamid], for which the inhibition at 10 µM is 85%.

On to `COc1cc(C)c(S(=O)(=O)Cc2c(C)nn(CC(=O)NC3CCC(NC4CC4)CC3(C)C)c2C)c(C)c1` (centres unmarked) [CC-174, N-[4-(Cyclopropylamino)-2,2-dimethyl-cyclohexyl]-2-[4-([(4-methoxy-2,6-dimethyl-phenyl)sulfonyl]-methyl]-3,5-dimethyl-1 H-pyrazol-1-yl]-acetamid], for which the inhibition at 10 µM worked out at 100%.

As to `COc1cc(C)c(S(=O)(=O)Cc2cn(CC(=O)NC3CCC(NC4CC4)CC3(C)C)nn2)c(C)c1` (centres unmarked) [CC-175, N-[4-(Cyclopropylamino)-2,2-dimethyl-cyclohexyl]-2-[4-[[(4-methoxy-2,6-dimethyl-phenyl)sulfonyl]-methyl]-1 H-[1,2,3]triazol-1-yl]-acetamid], the inhibition at 10 µM was determined as 100%.

As to `COc1cc(C)c(S(=O)(=O)Cc2cn(CC(=O)NC3CCNCC3(C)C)nn2)c(C)c1` (centres unmarked) [CC-176, N-(3,3-Dimethyl-piperidin-4-yl)-2-[4-[[(4-methoxy-2,6-dimethyl-phenyl)sulfonyl]-methyl]-1 H-[1,2,3]triazol-1-yl]-acetamid], the inhibition at 10 µM is 100%.

In the case of `COc1cc(C)c(S(=O)(=O)Cc2cc(C)n(CC(=O)NC3CCC(NC4CC4)CC3(C)C)n2)c(C)c1` (centres unmarked) [CC-177, N-[4-(Cyclopropylamino)-2,2-dimethyl-cyclohexyl]-2-[3-[[(4-methoxy-2,6-dimethyl-phenyl)sulfonyl]-methyl]-5-methyl-1 H-pyrazol-1-yl]-acetamid], the inhibition at 10 µM turned out to be 99%.

Take `COc1cc(C)c(S(=O)(=O)Cc2cn(CC(=O)NC3CCC(c4ccncc4)CC3(C)C)nn2)c(C)c1` (centres unmarked) [CC-178, N-(2,2-Dimethyl-4-pyridin-4-yl-cyclohexyl)-2-[4-[[(4-methoxy-2,6-dimethyl-phenyl)sulfonyl]-methyl]-1 H-[1,2,3]triazol-1-yl]-acetamid]: the inhibition at 10 µM came out at 100%.

As to `COc1cc(C)c(S(=O)(=O)Cc2c(C)nn(CC(=O)NC3CCN(C(C)=O)CC3(C)C)c2C)c(C)c1` (centres unmarked) [CC-179, N-(1-Acetyl-3,3-dimethyl-piperidin-4-yl)-2-[4-[[(4-methoxy-2,6-dimethyl-phenyl)sulfonyl]-methyl]-3,5-dimethyl-1 H-pyrazol-1-yl]-acetamid], the inhibition at 10 µM was 44%.

Turning to `COc1cc(C)c(S(=O)(=O)Cc2c(C)nn(CC(=O)NC3CCNCC3(C)C)c2C)c(C)c1` (centres unmarked) [CC-180, N-(3,3-Dimethyl-piperidin-4-yl)-2-[4-[[(4-methoxy-2,6-dimethyl-phenyl)sulfonyl]-methyl]-3,5-dimethyl-1 H-pyrazol-1-yl]-acetamid], the inhibition at 10 µM amounted to 98%.

In the case of `COc1cc(C)c(S(=O)(=O)Cc2cn(CC(=O)N(C)C3CCNCC3(C)C)nn2)c(C)c1` (centres unmarked) [CC-181, N-(3,3-Dimethyl-piperidin-4-yl)-2-[4-[[(4-methoxy-2,6-dimethyl-phenyl)sulfonyl]-methyl]-1 H-[1,2,3]-triazol-1-yl]-N-methyl-acetamid], the inhibition at 10 µM worked out at 99%.

On to `COc1cc(C)c(S(=O)(=O)Cc2cn(CC(=O)NC3CCNCC3)nn2)c(C)c1` [CC-182, 2-[4-[[(4-Methoxy-2,6-dimethyl-phenyl)sulfonyl]-methyl]-1H-[1,2,3]triazol-1-yl]-N-piperidin-4-yl-acetamid], for which the inhibition at 10 µM is 99%.

The record behind these values is patent EP2857388A1, “Azoles containing sulfone” (Grünenthal GmbH, priority 2013, dated 2015).
